Converted amounts (≈) assume the structure as drawn. Where two headings read alike, the source gives them in different places.
How the values were obtained:
Assay in all cases: MIC, microdilution in CAMHB 24 h
S. aureus MA078038 = format: cell-based, Staphylococcus aureus; settings: Staphylococcus aureus; MA078038; Human (CA); MRSA; read-out: MIC
S. aureus Newman = format: cell-based, Staphylococcus aureus; settings: Newman; for MIC: Staphylococcus aureus
S. aureus Mu50 = format: cell-based, Staphylococcus aureus; settings: for MIC: Staphylococcus aureus
S. aureus Sa228c = format: cell-based, Staphylococcus aureus; settings: for MIC: Staphylococcus aureus
S. aureus CF2A-L = format: cell-based; settings: CF2A-L; for MIC: Staphylococcus aureus, CF2AL
S. aureus CF4B-L = format: cell-based, Staphylococcus aureus; settings: CF4B-L; for MIC: Staphylococcus aureus, CF4BL
S. aureus CF6B-L = format: cell-based, Staphylococcus aureus; settings: CF6B-L; for MIC: Staphylococcus aureus, CF6BL
S. aureus CF7A-L = format: cell-based, Staphylococcus aureus; settings: CF7A-L; for MIC: Staphylococcus aureus
S. aureus CF8E-L = format: cell-based, Staphylococcus aureus; settings: CF8E-L; for MIC: Staphylococcus aureus, CF8EL
S. aureus CF35A-L = format: cell-based, Staphylococcus aureus; settings: CF35A-L; for MIC: Staphylococcus aureus
S. aureus CF07-L = format: cell-based, Staphylococcus aureus; settings: CF07-L; for MIC: Staphylococcus aureus, CF07L
[1] = 8 μg/ml of tomatidine, read-out: MIC +TO
[2] = absence of tomatidine, read-out: MIC −TO
[3] = Human (CF lungs), read-out: MIC
[4] = Human (CF lungs), MRSA, read-out: MIC

NC[C@H]1O[C@H](O[C@H]2[C@H](O)[C@@H](O[C@H]3O[C@H](CO)[C@@H](O)[C@H](N)[C@H]3O)[C@H](N)C[C@@H]2N)[C@H](O)[C@@H](O)[C@@H]1O [Kanamycin, kanamycin]
MIC (S. aureus MA078038): > 1020 µg/mL | Fold (−TO/+TO) (S. aureus Newman; 8 μg/ml of tomatidine): 8 fold | MIC (S. aureus Newman; [1]): 0.5 µg/mL (≈ 1.03 µM) | MIC (S. aureus Newman; Human (Osteo), read-out: MIC): 4 µg/mL (≈ 8.26 µM) | MIC (S. aureus Newman; [2]): 4 µg/mL (≈ 8.26 µM) | Fold (−TO/+TO) (S. aureus Mu50; Mu50, 8 μg/ml of tomatidine): >2-4 fold | MIC (S. aureus Mu50; Mu50, aac(6′)-aph(2″), ant(4′)-Ia, 8 μg/ml of tomatidine, read-out: MIC +TO): 256 to 512 µg/mL (≈ 528 to 1060 µM) | MIC (S. aureus Mu50; Mu50, aac(6′)-aph(2″), ant(4′)-Ia, absence of tomatidine, read-out: MIC −TO): > 1020 µg/mL | MIC (S. aureus Mu50; Mu50, Human (SSTI), MRSA, VISA, read-out: MIC): > 1020 µg/mL | Fold (−TO/+TO) (S. aureus Sa228c; Sa228c, 8 μg/ml of tomatidine): 2-8 fold | MIC (S. aureus Sa228c; MRSA): 512 to 1020 µg/mL (≈ 1060 to 2110 µM) | MIC (S. aureus Sa228c; SA228C, read-out: MIC +TO): 128 to 256 µg/mL (≈ 264 to 528 µM) | MIC (S. aureus Sa228c; SA228C, read-out: MIC −TO): 512 to 1020 µg/mL (≈ 1060 to 2110 µM) | Fold (−TO/+TO) (S. aureus CF2A-L; 8 μg/ml of tomatidine): 8 fold | MIC (S. aureus CF2A-L; [1]): 0.5 µg/mL (≈ 1.03 µM) | MIC (S. aureus CF2A-L; [3]): 4 µg/mL (≈ 8.26 µM) | MIC (S. aureus CF2A-L; [2]): 4 µg/mL (≈ 8.26 µM) | Fold (−TO/+TO) (S. aureus CF4B-L; 8 μg/ml of tomatidine): 8 fold | MIC (S. aureus CF4B-L; [1]): 0.5 µg/mL (≈ 1.03 µM) | MIC (S. aureus CF4B-L; [3]): 4 µg/mL (≈ 8.26 µM) | MIC (S. aureus CF4B-L; [2]): 4 µg/mL (≈ 8.26 µM) | Fold (−TO/+TO) (S. aureus CF6B-L; 8 μg/ml of tomatidine): 4-8 fold | MIC (S. aureus CF6B-L; aac(6′)-aph(2″), 8 μg/ml of tomatidine, read-out: MIC +TO): 128 to 256 µg/mL (≈ 264 to 528 µM) | MIC (S. aureus CF6B-L; aac(6′)-aph(2″), absence of tomatidine, read-out: MIC −TO): 1020 µg/mL (≈ 2110 µM) | MIC (S. aureus CF6B-L; [3]): 1020 µg/mL (≈ 2110 µM) | Fold (−TO/+TO) (S. aureus CF7A-L; 8 μg/ml of tomatidine): 2-4 fold | MIC (S. aureus CF7A-L; CF7AL, ant(4′)-Ia, 8 μg/ml of tomatidine, read-out: MIC +TO): 64 to 256 µg/mL (≈ 132 to 528 µM) | MIC (S. aureus CF7A-L; CF7AL, ant(4′)-Ia, absence of tomatidine, read-out: MIC −TO): 256 to 512 µg/mL (≈ 528 to 1060 µM) | MIC (S. aureus CF7A-L; [4]): 256 to 512 µg/mL (≈ 528 to 1060 µM) | Fold (−TO/+TO) (S. aureus CF8E-L; 8 μg/ml of tomatidine): 2-4 fold | MIC (S. aureus CF8E-L; [1]): 2 to 8 µg/mL (≈ 4.13 to 16.5 µM) | MIC (S. aureus CF8E-L; [3]): 16 µg/mL (≈ 33 µM) | MIC (S. aureus CF8E-L; [2]): 16 µg/mL (≈ 33 µM) | Fold (−TO/+TO) (S. aureus CF35A-L; 8 μg/ml of tomatidine): 4 fold | MIC (S. aureus CF35A-L; CF35AL, 8 μg/ml of tomatidine, read-out: MIC +TO): 1 µg/mL (≈ 2.06 µM) | MIC (S. aureus CF35A-L; CF35AL, absence of tomatidine, read-out: MIC −TO): 4 µg/mL (≈ 8.26 µM) | MIC (S. aureus CF35A-L; [4]): 4 µg/mL (≈ 8.26 µM) | Fold (−TO/+TO) (S. aureus CF07-L; 8 μg/ml of tomatidine): 4-8 fold | MIC (S. aureus CF07-L; [1]): 0.5 to 1 µg/mL (≈ 1.03 to 2.06 µM) | MIC (S. aureus CF07-L; [3]): 4 µg/mL (≈ 8.26 µM) | MIC (S. aureus CF07-L; [2]): 4 µg/mL (≈ 8.26 µM)

Source: US9457033B2, “Steroid alkaloids and uses thereof as antimicrobial agents against electron transport-deficient microbes and as potentiators for antimicrobial agents against pathogenic bacteria” (priority 2011, dated 2016)
